Experimental data from patent publication EP2270002A1 (Vereniging voor Christelijk Hoger Onderwijs, …, priority 2009, dated 2011).

Target: histamine H4 receptor (Homo sapiens, UniProt Q9H3N8)
Assay: histamine H4 receptor Ki (Table 1; no method described)
Assay type: binding

Row | SMILES | Ki
1 | Cc1ccc2c(N3CCN(C)CC3)nc(N)nc2c1 [Compound 1] | 24 nM
2 | CN1CCN(c2nc(N)nc3cc(Br)ccc23)CC1 [Compound 2, 7-bromo-4-(4-methylpiperazin-1-yl)quinazolin-2-amine] | 17 nM
3 | CN1CCN(c2nc(N)nc3cc(-c4ccoc4)ccc23)CC1 [Compound 7, 7-(furan-3-yl)-4-(4-methylpiperazin-1-yl)quinazolin-2-amine] | 6 nM
4 | CN1CCN(c2nc(N)nc3cc(-c4ccsc4)ccc23)CC1 [Compound 9, 4-(4-methylpiperazin-1-yl)-7-(thiophen-3-yl)quinazolin-2-amine] | 5 nM
5 | Cc1cccc2c(N3CCN(C)CC3)nc(N)nc12 [Compound 10] | 91 nM
6 | CN1CCN(c2nc(N)nc3c(Br)cccc23)CC1 [Compound 11, 8-bromo-4-(4-methylpiperazin-1-yl)quinazolin-2-amine] | 111 nM
7 | CN1CCN(c2nc(N)nc3c(-c4ccoc4)cccc23)CC1 [Compound 16, 8-(furan-3-yl)-4-(4-methylpiperazin-1-yl)quinazolin-2-amine] | 109 nM

Continued, values first:

Row | Ki | SMILES
8 | 19 nM | CN1CCN(c2nc(N)nc3cc(-c4ccccc4)ccc23)CC1 [Compound 3, 4-(4-methylpiperazin-1-yl)-7-phenylquinazolin-2-amine]
9 | 90 nM | Cc1cccc(C)c1-c1ccc2c(N3CCN(C)CC3)nc(N)nc2c1 [Compound 4, 7-(2,6-dimethylphenyl)-4-(4-methylpiperazin-1-yl)quinazolin-2-amine]
10 | 29 nM | CN1CCN(c2nc(N)nc3cc(-c4ccc(C#N)cc4)ccc23)CC1 [Compound 5, 4-(2-amino-4-(4-methylpiperazin-1-yl)quinazolin-7-yl)benzonitrile]
11 | 55 nM | COc1ccc(-c2ccc3c(N4CCN(C)CC4)nc(N)nc3c2)cc1 [Compound 6, 7-(4-methoxyphenyl)-4-(4-methylpiperazin-1-yl)quinazolin-2-amine]
12 | 4 nM | CN1CCN(c2nc(N)nc3cc(-c4ccco4)ccc23)CC1 [Compound 8, 7-(furan-2-yl)-4-(4-methylpiperazin-1-yl)quinazolin-2-amine]
13 | 32 nM | CN1CCN(c2nc(N)nc3c(-c4ccccc4)cccc23)CC1 [Compound 12, 4-(4-methylpiperazin-1-yl)-8-phenylquinazolin-2-amine]
14 | 221 nM | Cc1cccc(C)c1-c1cccc2c(N3CCN(C)CC3)nc(N)nc12 [Compound 13, 8-(2,6-dimethylphenyl)-4-(4-methylpiperazin-1-yl)quinazolin-2-amine]
15 | 2330 nM | CN1CCN(c2nc(N)nc3c(-c4ccc(C#N)cc4)cccc23)CC1 [Compound 14, 4-(2-amino-4-(4-methylpiperazin-1-yl)quinazolin-8-yl)benzonitrile]
16 | 945 nM | COc1ccc(-c2cccc3c(N4CCN(C)CC4)nc(N)nc23)cc1 [Compound 15, 8-(4-methoxyphenyl)-4-(4-methylpiperazin-1-yl)quinazolin-2-amine]
